{
  "source": "ChEMBL document CHEMBL1136823",
  "about": "“Lead discovery of alpha,beta-unsaturated sulfones from a combinatorial library as inhibitors of inducible VCAM-1 expression” (Bioorg Med Chem Lett, 2003)",
  "data": [
    {"assay": "In vitro inhibition of inducible vascular cell adhesion molecule-1 (VCAM-1) expression in Human aortic endothelial cells (HAEC); call rule not given here", "type": "functional, cell-based", "units": {"IC50": "µM"}, "values": [
      {"smiles": "CC(=O)OCCS(=O)(=O)c1cccc(N)c1", "IC50": 10},
      {"smiles": "CCCCCCC/C=C/C(=O)Nc1cccc(S(=O)(=O)CCO)c1", "IC50": 23},
      {"smiles": "CCCCCC#CC(=O)OCCS(=O)(=O)c1cccc(N)c1", "IC50": 6},
      {"smiles": "C=CC(=O)OCCS(=O)(=O)c1ccccc1", "IC50": 7},
      {"smiles": "CCCCC/C=C/C(=O)OCCS(=O)(=O)c1ccccc1", "IC50": 17},
      {"smiles": "CC(=O)Nc1cccc(S(=O)(=O)CCOC(C)=O)c1", "IC50": 4},
      {"smiles": "C=CS(C)(=O)=O", "IC50": 14},
      {"smiles": "CCCCCC#CC(=O)Nc1cccc(S(=O)(=O)CCO)c1", "IC50": 20},
      {"smiles": "CC(=O)OCCS(=O)(=O)c1ccccc1", "IC50": 12},
      {"smiles": "O=S(=O)(CCCl)c1ccccc1", "IC50": 2},
      {"smiles": "CCCCC/C=C/C(=O)OCCS(=O)(=O)c1cccc(N)c1", "IC50": 17},
      {"smiles": "O=S1(=O)C=Cc2ccccc21", "IC50": 4},
      {"smiles": "C=CS(=O)(=O)c1cccc(NCCCCCCCC)c1", "IC50": 29},
      {"smiles": "CCCCCCC/C=C/C(=O)OCCS(=O)(=O)c1cccc(N)c1", "IC50": 28},
      {"smiles": "C=CS(=O)(=O)c1ccccc1", "note": "[(ETHENYLSULFONYL)BENZENE]", "IC50": 2}
    ]},
    {"assay": "In vitro inhibition of inducible vascular cell adhesion molecule-1 (VCAM-1) expression in Human aortic endothelial cells (HAEC); NE denotes no effect", "type": "functional, cell-based", "values": [
      {"smiles": "CCOC(=O)CNCCS(=O)(=O)c1ccccc1", "IC50": "Not Active"},
      {"smiles": "O=S(=O)(c1ccccc1)c1cccs1", "IC50": "Not Active"},
      {"smiles": "COC(=O)CS(=O)(=O)c1ccccc1", "IC50": "Not Active"},
      {"smiles": "CCCOCCS(=O)(=O)c1cccc(N)c1", "IC50": "Not Active"},
      {"smiles": "CCS(=O)(=O)c1ccccc1", "IC50": "Not Active"},
      {"smiles": "Nc1cccc(S(=O)(=O)CCO)c1", "IC50": "Not Active"},
      {"smiles": "CCOCCS(=O)(=O)c1ccccc1", "IC50": "Not Active"},
      {"smiles": "CCN(CC)CCS(=O)(=O)c1ccccc1", "IC50": "Not Active"},
      {"smiles": "C=C[S+]([O-])c1ccccc1", "note": "(configuration not stated)", "IC50": "Not Active"},
      {"smiles": "O=S(=O)(CCNCc1ccccc1)c1ccccc1", "IC50": "Not Active"},
      {"smiles": "CCCCCCCCOCCS(=O)(=O)c1ccccc1", "IC50": "Not Active"},
      {"smiles": "CCCNc1cccc(S(=O)(=O)CCOC(C)=O)c1", "IC50": "Not Active"},
      {"smiles": "O=S(=O)(c1ccccc1)c1ccsc1", "IC50": "Not Active"},
      {"smiles": "C=CCCS(=O)(=O)c1ccccc1", "IC50": "Not Active"},
      {"smiles": "O=C1c2ccccc2C(=O)N1CCS(=O)(=O)c1ccccc1", "IC50": "Not Active"},
      {"smiles": "CCCCCCCCNc1cccc(S(=O)(=O)CCOC(C)=O)c1", "IC50": "Not Active"},
      {"smiles": "CC(=O)CCCS(=O)(=O)c1ccccc1", "IC50": "Not Active"}
    ]}
  ]
}
